Article PMC6704710, “Preclinical evaluation of 3D185, a novel potent inhibitor of FGFR1/2/3 and CSF-1R, in FGFR-dependent and macrophage-dominant cancer models” (Journal of Experimental & Clinical Cancer Research : CR, 2019)

Assays:
Test in all cases: Eurofins kinase panel
Format in all cases: biochemical
Details in all cases: read-out: Inhibition rate (%)
Hck(h) activated = target: T1, Hck(h) activated (Homo sapiens, UniProt P08631)
T1 construct: purchased Eurofins (KinaseProfiler)

CK1γ1(h) = target: T2, CK1γ1(h) (Homo sapiens, UniProt Q9HCP0)
T2 construct: purchased Eurofins (KinaseProfiler)

TAO3(h) = target: T3, TAO3(h) (Homo sapiens, UniProt Q9H2K8)
T3 construct: purchased Eurofins (KinaseProfiler)
T3 sequence (Q9H2K8 1-898): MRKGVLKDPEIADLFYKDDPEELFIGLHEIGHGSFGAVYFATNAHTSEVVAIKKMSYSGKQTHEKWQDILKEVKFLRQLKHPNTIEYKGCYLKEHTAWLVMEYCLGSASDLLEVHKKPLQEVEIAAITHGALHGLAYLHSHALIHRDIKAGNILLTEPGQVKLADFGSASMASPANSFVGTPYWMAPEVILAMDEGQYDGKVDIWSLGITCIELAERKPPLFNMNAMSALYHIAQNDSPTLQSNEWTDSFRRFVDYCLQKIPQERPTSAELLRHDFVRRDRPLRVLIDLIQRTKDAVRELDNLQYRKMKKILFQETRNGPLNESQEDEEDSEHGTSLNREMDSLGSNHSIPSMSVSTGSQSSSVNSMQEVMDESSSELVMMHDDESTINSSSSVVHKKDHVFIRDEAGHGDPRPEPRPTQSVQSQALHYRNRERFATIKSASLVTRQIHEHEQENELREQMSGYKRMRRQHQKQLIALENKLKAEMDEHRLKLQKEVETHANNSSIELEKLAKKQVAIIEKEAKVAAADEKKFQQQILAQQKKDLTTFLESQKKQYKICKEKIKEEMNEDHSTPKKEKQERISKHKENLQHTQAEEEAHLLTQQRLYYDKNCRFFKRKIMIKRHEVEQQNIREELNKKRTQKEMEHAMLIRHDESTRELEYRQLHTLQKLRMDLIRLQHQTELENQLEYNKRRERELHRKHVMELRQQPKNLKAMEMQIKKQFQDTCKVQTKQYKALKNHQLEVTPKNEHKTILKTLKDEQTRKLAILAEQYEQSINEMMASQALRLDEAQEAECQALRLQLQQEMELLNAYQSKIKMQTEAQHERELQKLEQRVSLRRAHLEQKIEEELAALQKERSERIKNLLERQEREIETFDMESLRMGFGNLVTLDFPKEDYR

CHK2(I157T)(h) = target: T4, CHK2(I157T)(h) (Homo sapiens, UniProt O96017, I157T)
T4 construct: purchased Eurofins (KinaseProfiler)

PDGFRβ(h) = target: T5, PDGFRβ(h) (Homo sapiens, UniProt P09619)
T5 construct: purchased Eurofins (KinaseProfiler)

ULK1(h) = target: T6, ULK1(h) (Homo sapiens, UniProt O75385)
T6 construct: purchased Eurofins (KinaseProfiler)
T6 sequence (O75385 1-1050): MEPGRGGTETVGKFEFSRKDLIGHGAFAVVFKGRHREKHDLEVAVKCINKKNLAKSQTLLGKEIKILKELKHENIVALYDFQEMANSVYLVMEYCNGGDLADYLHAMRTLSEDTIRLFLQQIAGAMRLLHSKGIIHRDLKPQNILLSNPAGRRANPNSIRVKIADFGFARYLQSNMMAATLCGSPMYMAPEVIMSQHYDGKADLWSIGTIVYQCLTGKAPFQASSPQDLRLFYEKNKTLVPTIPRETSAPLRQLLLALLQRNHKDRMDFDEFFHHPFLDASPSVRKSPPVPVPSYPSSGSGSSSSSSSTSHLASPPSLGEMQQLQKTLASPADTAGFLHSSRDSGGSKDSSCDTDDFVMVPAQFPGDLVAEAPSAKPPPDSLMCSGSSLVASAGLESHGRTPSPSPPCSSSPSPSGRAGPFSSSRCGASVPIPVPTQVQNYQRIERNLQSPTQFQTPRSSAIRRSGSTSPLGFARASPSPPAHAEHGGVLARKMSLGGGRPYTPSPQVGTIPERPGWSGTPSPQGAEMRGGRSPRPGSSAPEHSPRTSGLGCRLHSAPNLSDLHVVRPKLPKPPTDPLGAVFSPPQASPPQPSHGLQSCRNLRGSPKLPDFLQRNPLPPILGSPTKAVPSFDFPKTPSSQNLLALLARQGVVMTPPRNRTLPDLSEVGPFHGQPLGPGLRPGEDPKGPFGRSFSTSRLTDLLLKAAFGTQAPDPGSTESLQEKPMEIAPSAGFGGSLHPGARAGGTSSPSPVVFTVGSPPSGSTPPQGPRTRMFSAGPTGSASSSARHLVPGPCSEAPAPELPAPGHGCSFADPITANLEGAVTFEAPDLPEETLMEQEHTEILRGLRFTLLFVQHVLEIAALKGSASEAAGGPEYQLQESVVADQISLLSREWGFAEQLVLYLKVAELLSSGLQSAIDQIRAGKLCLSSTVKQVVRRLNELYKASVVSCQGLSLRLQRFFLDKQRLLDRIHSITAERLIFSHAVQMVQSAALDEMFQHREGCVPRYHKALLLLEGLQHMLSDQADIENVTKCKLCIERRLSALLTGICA

T2 sequence (Q9HCP0 whole entry): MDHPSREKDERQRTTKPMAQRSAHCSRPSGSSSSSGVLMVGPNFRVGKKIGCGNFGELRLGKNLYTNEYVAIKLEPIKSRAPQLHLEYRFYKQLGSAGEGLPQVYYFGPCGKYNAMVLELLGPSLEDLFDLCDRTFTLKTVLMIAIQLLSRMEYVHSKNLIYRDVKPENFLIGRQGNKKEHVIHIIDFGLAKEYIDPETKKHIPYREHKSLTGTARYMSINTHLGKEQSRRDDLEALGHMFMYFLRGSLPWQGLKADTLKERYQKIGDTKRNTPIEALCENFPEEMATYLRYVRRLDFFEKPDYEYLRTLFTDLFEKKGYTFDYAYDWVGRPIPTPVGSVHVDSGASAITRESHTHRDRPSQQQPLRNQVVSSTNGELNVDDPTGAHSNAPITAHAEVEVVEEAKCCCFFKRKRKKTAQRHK
T5 sequence (P09619 33-1106): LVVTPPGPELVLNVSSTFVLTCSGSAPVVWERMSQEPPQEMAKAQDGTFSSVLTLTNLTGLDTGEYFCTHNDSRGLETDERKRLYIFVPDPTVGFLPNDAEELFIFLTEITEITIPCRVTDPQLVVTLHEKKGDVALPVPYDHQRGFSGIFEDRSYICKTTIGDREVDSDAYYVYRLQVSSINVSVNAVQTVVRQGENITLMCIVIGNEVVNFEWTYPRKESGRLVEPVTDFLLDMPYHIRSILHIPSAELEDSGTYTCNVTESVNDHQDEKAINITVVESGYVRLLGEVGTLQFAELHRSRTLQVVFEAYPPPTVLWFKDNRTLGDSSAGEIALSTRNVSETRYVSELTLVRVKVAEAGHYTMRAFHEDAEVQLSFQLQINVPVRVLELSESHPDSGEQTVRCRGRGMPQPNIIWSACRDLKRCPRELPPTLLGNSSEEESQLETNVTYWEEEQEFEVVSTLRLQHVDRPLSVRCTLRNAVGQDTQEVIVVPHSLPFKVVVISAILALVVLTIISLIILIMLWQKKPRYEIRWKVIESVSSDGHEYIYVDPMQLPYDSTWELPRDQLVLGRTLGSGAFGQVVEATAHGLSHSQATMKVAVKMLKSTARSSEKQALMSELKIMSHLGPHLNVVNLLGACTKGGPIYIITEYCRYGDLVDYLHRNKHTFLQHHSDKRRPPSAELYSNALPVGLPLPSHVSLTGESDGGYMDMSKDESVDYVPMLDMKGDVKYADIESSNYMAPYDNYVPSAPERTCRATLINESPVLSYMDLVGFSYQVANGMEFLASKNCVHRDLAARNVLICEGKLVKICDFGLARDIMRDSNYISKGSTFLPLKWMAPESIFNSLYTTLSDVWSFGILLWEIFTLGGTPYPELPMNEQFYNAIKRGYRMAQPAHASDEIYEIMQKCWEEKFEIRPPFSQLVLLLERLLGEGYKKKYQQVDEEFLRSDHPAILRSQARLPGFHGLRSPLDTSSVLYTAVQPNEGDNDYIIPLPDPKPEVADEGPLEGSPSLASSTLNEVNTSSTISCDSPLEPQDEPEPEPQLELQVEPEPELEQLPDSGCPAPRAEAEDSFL
T4 sequence (O96017 whole entry I157T): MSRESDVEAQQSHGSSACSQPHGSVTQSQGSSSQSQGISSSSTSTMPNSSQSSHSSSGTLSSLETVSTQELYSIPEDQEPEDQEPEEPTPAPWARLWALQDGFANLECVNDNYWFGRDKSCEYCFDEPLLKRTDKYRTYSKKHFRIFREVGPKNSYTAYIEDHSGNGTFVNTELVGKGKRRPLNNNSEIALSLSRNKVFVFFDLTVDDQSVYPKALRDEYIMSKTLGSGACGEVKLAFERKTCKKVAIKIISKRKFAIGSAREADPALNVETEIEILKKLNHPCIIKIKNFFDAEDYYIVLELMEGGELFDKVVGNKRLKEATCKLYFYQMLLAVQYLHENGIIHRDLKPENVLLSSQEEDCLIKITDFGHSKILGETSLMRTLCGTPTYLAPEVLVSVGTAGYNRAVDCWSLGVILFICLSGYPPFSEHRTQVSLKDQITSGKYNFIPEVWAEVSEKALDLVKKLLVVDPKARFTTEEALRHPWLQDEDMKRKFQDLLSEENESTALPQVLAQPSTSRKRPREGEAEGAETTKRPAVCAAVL
T1 sequence (P08631 whole entry): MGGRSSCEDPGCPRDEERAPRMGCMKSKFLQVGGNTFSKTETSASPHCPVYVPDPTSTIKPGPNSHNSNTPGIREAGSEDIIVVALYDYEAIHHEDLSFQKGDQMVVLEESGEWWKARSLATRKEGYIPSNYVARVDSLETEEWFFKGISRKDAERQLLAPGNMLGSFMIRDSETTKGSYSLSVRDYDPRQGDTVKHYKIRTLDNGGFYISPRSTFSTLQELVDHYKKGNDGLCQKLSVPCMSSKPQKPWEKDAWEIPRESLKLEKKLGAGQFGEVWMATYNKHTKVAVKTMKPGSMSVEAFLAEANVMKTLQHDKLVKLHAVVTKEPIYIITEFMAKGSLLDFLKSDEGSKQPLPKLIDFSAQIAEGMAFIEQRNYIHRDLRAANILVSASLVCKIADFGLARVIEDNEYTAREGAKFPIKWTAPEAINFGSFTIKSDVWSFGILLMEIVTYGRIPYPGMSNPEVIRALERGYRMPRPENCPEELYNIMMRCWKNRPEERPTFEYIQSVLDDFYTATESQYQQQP

SMILES: COc1cc(OC)c(Cl)c(-c2ccc3c(NC(=O)c4ccc(N5CCNC(C)(C)C5)cc4)n[nH]c3n2)c1Cl [3D185]
- inhibition at 0.01 µM (Hck(h) activated; 10 nM): 6%
- inhibition at 0.1 µM (Hck(h) activated; 100 nM): 44%
- inhibition at 1 µM (Hck(h) activated; 1000 nM): 87%
- inhibition at 0.01 µM (CK1γ1(h); 10 nM): 9%
- inhibition at 0.1 µM (CK1γ1(h); 100 nM): -4%
- inhibition at 1 µM (CK1γ1(h); 1000 nM): 2%
- inhibition at 0.01 µM (TAO3(h); 10 nM): -1%
- inhibition at 0.1 µM (TAO3(h); 100 nM): 7%
- inhibition at 1 µM (TAO3(h); 1000 nM): 36%
- inhibition at 0.01 µM (CHK2(I157T)(h); 10 nM): -6%
- inhibition at 0.1 µM (CHK2(I157T)(h); 100 nM): -5%
- inhibition at 1 µM (CHK2(I157T)(h); 1000 nM): -1%
- inhibition at 0.01 µM (PDGFRβ(h); 10 nM): 1%
- inhibition at 0.1 µM (PDGFRβ(h); 100 nM): -1%
- inhibition at 1 µM (PDGFRβ(h); 1000 nM): 17%
- inhibition at 0.01 µM (ULK1(h); 10 nM): -2%
- inhibition at 0.1 µM (ULK1(h); 100 nM): 4%
- inhibition at 1 µM (ULK1(h); 1000 nM): 5%
